Measured values from patent publication US20090069359A1 (priority 2006, published 2009).

Experiments:
facial wrinkles = details: human, in vivo
Peyronie's disease = system: Peyronie's disease; design: species or system human; details: in vivo
erectile dysfunction = system: erectile dysfunction; design: species or system human; details: in vivo
hair loss and baldness = system: hair loss and baldness; design: species or system human; details: in vivo

With `CC1=C(/C=C/C(C)=C/C=C/C(C)=C/C(=O)O)C(C)(C)CCC1` [Retin A, tretinoin] the “duration of wrinkle reducing effect” value (facial wrinkles) was “lasts up to one week”, the “period over which wrinkle reducing effect occurs” value (facial wrinkles) was 72 h and the wrinkle treatment outcome (facial wrinkles) was “used successfully”.
For botulinum toxina [Botox], the “duration of wrinkle reducing effect” value (facial wrinkles) was “lasts up to one week”, the “period over which wrinkle reducing effect occurs” value (facial wrinkles) was 72 h and the wrinkle treatment outcome (facial wrinkles) was “used successfully”.
`CC(C)NCC(O)COc1cccc2ccccc12` (stereo not drawn) [propranolol] was tested, and the penile curvature outcome (Peyronie's disease) was “gradually attained a straightened penis” and the “time to straightened penis” value (Peyronie's disease) was no more than 90 days.
In the case of `CC12CCC(CC1)C(C)(C)O2` [eucalyptol], the erections (erectile dysfunction) is reported as “improved erections were obtained”.
With `C[C@H]1C[C@H]2[C@@H]3CCC4=CC(=O)C=C[C@]4(C)[C@@]3(F)[C@@H](O)C[C@]2(C)[C@@]1(O)C(=O)CO` [betamethasone] the “time of treatment after which new hair growth began” value (hair loss and baldness) was 30 days.
In the case of `Nc1cc(N2CCCCC2)nc(N)[n+]1[O-]` [minoxidil], the “time of treatment after which new hair growth began” value (hair loss and baldness) is reported as 30 days.
With `CC1CCC(C(C)C)C(O)C1` (stereo not drawn) [menthol] the erections (erectile dysfunction) was “improved erections were obtained”.
